According to patent US20240408112A1, “METHOD FOR PREVENTING OR TREATING PULMONARY ARTERIAL HYPERTENSION BY USING 7-DEHYDROCHOLESTEROLS OR SALTS, OXIDES, METABOLITES, OR DERIVATIVES THEREOF” (EXCELSIOR PHARMATECH LABS., priority 2023, published 2024):

Experiments:
[1] = test system: human pulmonary artery endothelial cells (hPAEC); experiment: BrdU cell proliferation assay, 10% FBS, hPAEC; format: cell-based; conditions: Homo sapiens, Endothelial cell, read-out: EC50 (concentration for 50% of maximal effect)
Method: (§1) BrdU (5-bromo-2-deoxyuridine) cell proliferation assay (BrdU assay)
(§2) A 48-well plate was used, and 1.5×10^4 cells were implanted in each well. After 24 hours, the medium was changed to serum-free culture medium and synchronized for 24 hours. A 2-fold concentration of the compound in serum-free culture medium is prepared and the cells were pretreated for 1 hour. Then, the same volume of culture medium containing 20% fetal bovine serum (FBS) was added to dilute the compound. The final concentration was 10% FBS culture medium and 1 times the concentration of the compound. In the experimental group that added TGF-β, the same volume of TGF-β culture medium containing 10 ng/mL was added, with a final concentration of 5 ng/mL TGF-β and 1 times the concentration of the compound, and in the experimental group added with TGF-β, the entire process was conducted in culture medium containing 0.1% serum. Then, BrdU reagent was added about 6 hours later, and the cells were collected the next day for enzyme-linked immunosorbent assay (ELISA) analysis, the compound treatment time was about 24 hours, and the BrdU treatment time was about 18 hours.
(§3) Five compounds to be tested were screened by cell survival assay (MTT assay) and BrdU (5-bromo-2-deoxyuridine) cell proliferation assay, and the information of these compounds was listed in Table 1 below. Tables 2 and 3 respectively listed the growth inhibitions of on human pulmonary artery endothelial cells (hPAEC), human pulmonary artery smooth muscle cells (hPASMC), normal rat pulmonary artery smooth muscle cells (rPASMC, as the control group, represented by “CON”), and rat pulmonary artery smooth muscle cells (represented by “MCT”), by the five compounds to be tested under the conditions of 10% FBS, 0.1% FBS and 100 pM TGF-β.

[2] = test system: human pulmonary artery smooth muscle cells (hPASMC); experiment: BrdU cell proliferation assay, 0.1% FBS, 100 pM TGF-β, hPASMC; format: cell-based; conditions: Homo sapiens
Method: as §1, §2, §3

[3] = test system: TGF-β-stimulated PAI-1 promoter activity; experiment: TGF-β stimulated Pai-1 luciferase assay in MLECs-clone32 cells; format: cell-based; conditions: TGF-β 50 pM, 4 hours, read-out: IC50 value of compound inhibiting TGF-β-stimulated Pai-1 luciferase activity (%)
From the text: TGF-β Stimulated Pai-1 Luciferase Assay
MLECs-clone32 cell line was used to measure the impact of different compounds on the downstream gene, plasminogenactivator inhibitor 1 (PAI-1) performance stimulated by TGF-β. MLECs-clone32 is an expression construct that is stably transfected for the Mv1Lu cell line, and the expression construct PAI-1 Luciferase contains a truncated (PAI-1) promoter fused to the firefly luciferase reporter gene^11,12. The activity stimulated by the truncated PAI-I promoter was quantified by using a luciferase assay. The luciferase activity stimulated by TGF-β in cells without compound treatment was set as 100%, and the effects of each compound on TGF-β-stimulated PAI-I promoter activity were compared. The steps for measuring Pai-1 luciferase activity include using a 96-well plate (DMEM medium containing 10% FBS), seeding each well with 1.5×10^5 cells, and culturing in an incubator overnight. After discarding the medium the next day, cells in DMEM medium with or without the addition of test compounds were treated with recombinant TGF-β (50 pM) and allowed to react in a 37° C. incubator for 4 hours. The cell culture medium was aspirated, washed with PBS, and the activity of Pai-1 luciferase was evaluated by luciferase assay.

[4] = test system: PAH rat pulmonary artery smooth muscle cells (rPASMC MCT); experiment: BrdU cell proliferation assay, 0.1% FBS, 100 pM TGF-β, rPASMC MCT; format: cell-based; conditions: Rattus norvegicus
Method: as §1, §2, §3

[5] = test system: normal rat pulmonary artery smooth muscle cells (rPASMC CON); experiment: BrdU cell proliferation assay, 0.1% FBS, 100 pM TGF-β, rPASMC CON; format: cell-based; conditions: Rattus norvegicus
Method: as §1
as §2, with “with a final concentration of 5 ng/mL TGF-β and 1 times the concentration” left out
Five compounds to be tested were screened by cell survival assay (MTT assay) and BrdU (5-bromo-2-deoxyuridine) cell proliferation assay, and the information of these compounds was listed in Table 1 below.

[6] = test system: monocrotaline induced pulmonary hypertension rat; experiment: Monocrotaline-induced pulmonary arterial hypertension rat model, Example 2 (7-DHC, 042); format: in vivo; conditions: 50 mg/kg IP
From the text: (§4) Pulmonary arterial hypertension animal experimental model
(§5) The present disclosure utilizes injection of monocrotaline to induce symptoms of pulmonary arterial hypertension in rats to establish a pulmonary arterial hypertension animal experimental model suitable for screening test drugs.
(§6) The diagnostic method of clinical pulmonary arterial hypertension standards is right heart catheterization, which is defined as mean pulmonary arterial pressure (mPAP) greater than or equal to 20 mmHg. The diagnostic criteria for pulmonary arterial hypertension, in addition to an increase in mean pulmonary arterial pressure, need to be combined with pulmonary vascular resistance (PVR) greater than 3 Wood unit. The right ventricle pressure (RVP) and systemic mean blood pressure (mbp) in rats with pulmonary arterial hypertension were measured by Millar Model PCU200 pressure system, and the heart rate (HR) was also monitored at the same time. After measuring the hemodynamic data, the arterial blood was extracted from the carotid artery of the pulmonary arterial hypertension rat, and the Abbott blood oximeter (i-STAT) combined with Abbott's special chip cartridge (i-STAT Cartridge G3+) was used to measure arterial gas analysis data such as pH, PaO2, PaCO2, HCO3 and base excess (BE) value in quantitative whole blood samples. The normal pH value is between 7.35 and 7.45, and the pH value indicates whether the experimental animal has the condition of acidemia, alkalemia, acidosis or alkalosis. The normal value of PaO2 is between 80 and 100 mmHg, which reflects the effectiveness of gas exchange (ventilation/perfusion). The normal value of PaCO2 is between 35 and 45 (such as 38 and 42) mmHg, which can evaluate the effectiveness of alveolar ventilation. The acid produced by food, tissue decomposition, inflammation and hypoxia rely on the lungs to excrete volatile acid CO2 (short-term) and the bicarbonate (HCO3^−) produced by the kidneys (long-term) to neutralize non-volatile acids, while the normal value of bicarbonate hydrogen radical (HCO3^−) is between 22 and 26 meq/L. BE is the base excess value, its normal value ranges from −2 to +2, the negative value represents the degree of alkali ion deficiency in the blood, a negative BE value (−) that is too high indicates metabolic acidosis, and a positive value (+) that is too high is metabolic alkalosis. At the end of the experiment, the rats were sacrificed and their hearts were removed and the left and right ventricles were separated and weighed (RV)/(S)+(LV).
Monocrotaline (MCT) was utilized to induce pulmonary hypertension rat animal model, the TGF-β receptor inhibitor 7-DHC (039) and compound No. 042 were tested via intraperitoneal (IP) administration, and the physiological parameters of the animals were collected, wherein includes measuring right ventricle pressure, systemic arterial pressure, heartbeat and right ventricle hypertrophy, as well as observing and analyzing the pulmonary artery thickening and blood oxygenation levels through pathological sections of lung tissue. Specifically, 7-DHC (039) was divided into two groups with a dosage of 10 mg/kg or 20 mg/kg, the dosage of group 042 was 50 mg/kg, each dosage group has 3 rats (n=3), while the control group (CON) and the pulmonary arterial hypertension rat group (MCT) had 6 rats (n=6) respectively.

[7] = test system: human pulmonary artery endothelial cells (hPAEC); experiment: BrdU cell proliferation assay, 0.1% FBS, 100 pM TGF-β, hPAEC; format: cell-based; conditions: Homo sapiens, Endothelial cell
Method: as §1, §2, §3

[8] = test system: human pulmonary artery smooth muscle cells (hPASMC); experiment: BrdU cell proliferation assay, 10% FBS, hPASMC; format: cell-based; conditions: Homo sapiens, read-out: EC50 (concentration for 50% of maximal effect)
Method: as §1, §2, §3

[9] = test system: normal rat pulmonary artery smooth muscle cells (rPASMC CON); experiment: BrdU cell proliferation assay, 10% FBS, rPASMC CON; format: cell-based; conditions: Rattus norvegicus, read-out: EC50 (concentration for 50% of maximal effect)
Method: as §1, §2, §3

[10] = test system: PAH rat pulmonary artery smooth muscle cells (rPASMC MCT); experiment: BrdU cell proliferation assay, 10% FBS, rPASMC MCT; format: cell-based; conditions: Rattus norvegicus, read-out: EC50 (concentration for 50% of maximal effect)
Method: as §1, §2, §3

[11] = test system: monocrotaline induced pulmonary arterial hypertension rat; experiment: Monocrotaline-induced pulmonary arterial hypertension rat model, Example 3 (7-DHC vs macitentan); format: in vivo; conditions: 30 mg/kg oral
From the text: as §4, §5, §6
Monocrotaline was utilized to induce pulmonary arterial hypertension rat animal model, intraperitoneal injection (IP) TGF-β receptor inhibitor 7-DHC (039) and oral administration of macitentan (soluble in methylcellulose), 7-DHC (039) was divided into two groups according to the dosage: 10 mg/kg or 20 mg/kg, and the dosage of macitentan group was 30 mg/kg.

[12] = hPASMC, 100 pM TGF-β, 0.1% FBS, read-out: EC50
[13] = MCT (PAH rPASMC), 100 pM TGF-β, 0.1% FBS, read-out: EC50
[14] = CON (normal rPASMC), 100 pM TGF-β, 0.1% FBS, read-out: EC50
[15] = hPAEC, 100 pM TGF-β, 0.1% FBS, read-out: EC50

SMILES | EC50 [1] [µM] | EC50 [2, 12] [µM] | IC50 [3] [µM] | EC50 [4, 13] [µM] | EC50 [5, 14] [µM] | EC50 [7, 15] [µM] | EC50 [8] [µM] | EC50 [9] [µM] | EC50 [10] [µM] | other results
O=c1cc(-c2ccccc2)oc2cc(O)c(O)c(O)c12 [Code 042, Baicalein] | 20 | 4 | 14.8 | 9 | 52 | 15 | 5 | – | – | Right ventricle hypertrophy (RV/S+LV), in words ([6]; compared with MCT rats): slightly lower; Weight and activity of the rats ([6]; second week of administration, sacrificed early on day 21): significantly decreased
O=c1c(O)c(-c2ccc(O)c(O)c2)oc2cc(O)ccc12 [Code 050, Fisetin] | – | 35 | 44.1 | 79 | 106 | 40 | – | – | – | EC50 ([9]; CON (normal rPASMC), 10% FBS): 59 µM; EC50 ([1]; hPAEC, 10% FBS): 22 µM; EC50 ([10]; MCT (PAH rPASMC), 10% FBS): 38 µM; EC50 ([8]; hPASMC, 10% FBS): 27 µM
CCCNS(=O)(=O)Nc1ncnc(OCCOc2ncc(Br)cn2)c1-c1ccc(Br)cc1 [Code 053, Macitentan] | 175 | 59 | 82.9 | 87 | 96 | 40 | 100 | 142 | 114 | Blood vessel thickening, in words [11]: reduction in blood vessel thickening was also observed; Survival rate compared with the 7-DHC (039) group, in words [11]: significantly worse; Animal survival status ([11]; 23rd day after monocrotaline induction): died; Body weight and activity of the rats ([11]; second week of administration): not greatly affected
O=C(O)[C@H](O)Cc1ccc(O)c(O)c1 [Code 056, Danshensu] | 272 | – | – | – | – | – | 124 | 35 | 25 | EC50 [2]: 100 µM; EC50 [4]: 36 µM; EC50 [5]: 50 µM; EC50 [7]: 155 µM
CC(C)CCC[C@@H](C)[C@H]1CC[C@H]2C34C=CC5(C[C@@H](OC(=O)CBr)CC[C@]5(C)[C@H]3CC[C@]12C)n1c(=O)n(C)c(=O)n14 (stereo partly shown) [Code 203, MeTC7] | – | – | 17.5 | – | – | – | – | – | – | –
